The source of these data is BindingDB's records for doi:10.1021/ja0446404 (Yale University, 2005).

Chain of Bcl-2-like protein 1 (Q07817 whole entry): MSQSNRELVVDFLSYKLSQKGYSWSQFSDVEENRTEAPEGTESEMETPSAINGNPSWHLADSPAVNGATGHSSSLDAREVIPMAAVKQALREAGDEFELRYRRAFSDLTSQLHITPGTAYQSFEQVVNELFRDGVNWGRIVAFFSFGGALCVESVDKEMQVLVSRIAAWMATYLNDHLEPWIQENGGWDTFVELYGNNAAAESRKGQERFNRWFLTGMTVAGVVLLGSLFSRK

One assay concerns the target Bcl-2-like protein 1 (Homo sapiens, UniProt Q07817). Description: Fluorescence Polarization Assay.
Details: not given
As to the method: Fluorescence polarization experiments were conducted on a Photon Technology International instrument using a 0.3 cm path length cuvette. Spectra were measured at 25 deg C using 10.0 nm slit widths. Excitation at 495 nm was used for the fluorescein-containing peptide Fl-Bak and the emission maximum at 535 nm was monitored. Polarization measurements were recorded upon titration of inhibitors at varying concentrations into a solution of Fl-Bak and Bcl-xL.
(In general: In fluorescence polarisation assays a small probe gives low polarisation when free and higher when bound to something large.)
One may read the Ki as the dissociation constant of the complex between target and ligand, obtained from inhibition or displacement. A low value points to tighter binding. With `CC(C)C[C@H](NC(=O)c1ccc(C(=O)N[C@@H](CC(C)C)C(=O)O)c(Oc2ccc3ccccc3c2)c1)C(=O)O` [terephthalamide scaffold, 50], the Ki amounted to 82.1 µM. As for `CC(C)C[C@H](NC(=O)c1ccc(C(=O)N(CC(C)C)[C@H](C(=O)O)C(C)C)cc1OC(C)C)C(=O)O` [terephthalamide scaffold, 47], the Ki amounted to 450 µM.

Staying with this assay, now noted: pH 7.4; 25 °C.
Consider `CC(C)C[C@H](NC(=O)c1ccc(C(=O)N(C(C)C)C(C)C)cc1Oc1ccc2ccccc2c1)C(=O)O` [terephthalamide scaffold, 31], for which affinity was put at a Ki of 7.63 µM. In other words, the single-digit micromolar range. `COc1cc(C(=O)N(C(C)C)C(C)C)ccc1C(=O)N[C@@H](CC(C)C)C(=O)O` [terephthalamide scaffold, 28]: the Ki came to 2.31 µM. Against the preceding compound, the Ki is about 3.3-fold lower.

In the case of `COC(=O)[C@H](CC(C)C)NC(=O)c1ccc(C(=O)N(C)C)cc1OC(C)C` [terephthalamide scaffold, 34], the affinity corresponds to a Ki of 3.14 µM. For the compound `COC(=O)[C@H](Cc1ccccc1)NC(=O)c1ccc(C(=O)N(C(C)C)C(C)C)cc1OC(C)C` [terephthalamide scaffold, 25], the inhibition constant (Ki) worked out at 10.9 µM. Still for that read-out and setting: the value for `COC(=O)[C@H](CC(C)C)NC(=O)c1ccc(C(=O)N(C(C)C)C(C)C)cc1Oc1ccc([N+](=O)[O-])cc1` [terephthalamide scaffold, 32] was 13.2 µM.
